Results from the supplement of paper PMC10307832.

Legend:
Experiment in all cases: relative viability (nuclei count vs DMSO), 5 days (fraction); higher = more cells survive
[1] = tested on: NCI-H1355
Outline: (§1)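 Lung cancer cell lines, seeded in 1536-well plates, were treated the following day by pin tool with a single drug or with five library-drug doses (not always all listed) in √10 steps on top of a fixed anchor-drug dose. Cells were fixed and nuclei stained in one step after 5 days, and nuclei were counted. Relative viability is the nuclei count for treated wells divided by that for vehicle wells, reported as medians of duplicate plates.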

[2] = tested on: A-427
Outline: as §1

[3] = tested on: NCI-H2228
Outline: as §1

[4] = tested on: PC-3 [JPC-3]
Outline: as §1

[5] = tested on: LCLC-97TM1
Outline: as §1

[6] = tested on: LK-2
Outline: as §1

[7] = tested on: NCI-H1915
Outline: as §1

[8] = tested on: NCI-H838
Outline: as §1

[9] = tested on: NCI-H1666
Outline: as §1

[10] = tested on: PC-14
Outline: as §1

[11] = tested on: NCI-H2087
Outline: as §1

[12] = tested on: NCI-H358
Outline: as §1

[13] = tested on: NCI-H1792
Outline: as §1

[14] = tested on: ABC-1
Outline: as §1

[15] = tested on: UMC-11
Outline: as §1

[16] = tested on: NCI-H661
Outline: as §1

[17] = tested on: NCI-H322M
Outline: as §1

[18] = tested on: CAL-12T
Outline: as §1

[19] = tested on: SK-MES-1
Outline: as §1

[20] = tested on: NCI-H1651
Outline: as §1

[21] = tested on: NCI-H1395
Outline: as §1

[22] = tested on: NCI-H2085
Outline: as §1

[23] = tested on: H3255
Outline: as §1

O=c1[nH]c2ccccc2n1C1CCN(CCCC(c2ccc(F)cc2)c2ccc(F)cc2)CC1 [Pimozide] + O=C(c1cc(Cc2n[nH]c(=O)c3ccccc23)ccc1F)N1CCN(C(=O)C2CC2)CC1 [Olaparib] (partner 8 µM)
relative viability ([1]; first compound 0.08 µM): 0.717 | relative viability ([1]; first compound 0.253 µM): 0.677 | relative viability ([1]; first compound 0.8 µM): 0.675 | relative viability ([1]; first compound 2.53 µM): 0.758 | relative viability ([1]; first compound 8 µM): 0.689 | relative viability ([2]; first compound 0.08 µM): 0.708 | relative viability ([2]; first compound 0.253 µM): 0.681 | relative viability ([2]; first compound 0.8 µM): 0.661 | relative viability ([2]; first compound 2.53 µM): 0.691 | relative viability ([2]; first compound 8 µM): 0.685 | relative viability ([3]; first compound 0.08 µM): 0.759 | relative viability ([3]; first compound 0.253 µM): 0.699 | relative viability ([3]; first compound 0.8 µM): 0.555 | relative viability ([3]; first compound 2.53 µM): 0.45 | relative viability ([3]; first compound 8 µM): 0.344 | relative viability ([4]; first compound 0.253 µM): 1.09 | relative viability ([4]; first compound 0.8 µM): 1.1 | relative viability ([4]; first compound 2.53 µM): 1.08 | relative viability ([4]; first compound 8 µM): 1 | relative viability ([5]; first compound 0.08 µM): 0.387 | relative viability ([5]; first compound 0.253 µM): 0.314 | relative viability ([5]; first compound 0.8 µM): 0.404 | relative viability ([5]; first compound 2.53 µM): 0.222 | relative viability ([5]; first compound 8 µM): 0.269 | relative viability ([6]; first compound 0.08 µM): 0.643 | relative viability ([6]; first compound 0.253 µM): 0.687 | relative viability ([6]; first compound 0.8 µM): 0.765 | relative viability ([6]; first compound 2.53 µM): 0.693 | relative viability ([6]; first compound 8 µM): 0.691 | relative viability ([7]; first compound 0.08 µM): 0.259 | relative viability ([7]; first compound 0.253 µM): 0.241 | relative viability ([7]; first compound 2.53 µM): 0.246 | relative viability ([7]; first compound 8 µM): 0.243 | relative viability ([8]; first compound 0.08 µM): 0.772 | relative viability ([8]; first compound 0.253 µM): 0.757 | relative viability ([8]; first compound 0.8 µM): 0.729 | relative viability ([8]; first compound 2.53 µM): 0.719 | relative viability ([8]; first compound 8 µM): 0.744 | relative viability ([9]; first compound 0.08 µM): 0.708 | relative viability ([9]; first compound 0.253 µM): 0.737 | relative viability ([9]; first compound 0.8 µM): 0.787 | relative viability ([9]; first compound 2.53 µM): 0.756 | relative viability ([9]; first compound 8 µM): 0.754 | relative viability ([10]; first compound 0.253 µM): 0.276 | relative viability ([10]; first compound 0.8 µM): 0.225 | relative viability ([10]; first compound 2.53 µM): 0.215 | relative viability ([10]; first compound 8 µM): 0.209 | relative viability ([11]; first compound 0.08 µM): 0.679 | relative viability ([11]; first compound 0.253 µM): 0.582 | relative viability ([11]; first compound 2.53 µM): 0.579 | relative viability ([11]; first compound 8 µM): 0.45 | relative viability ([12]; first compound 0.08 µM): 0.596 | relative viability ([12]; first compound 0.253 µM): 0.583 | relative viability ([12]; first compound 0.8 µM): 0.561 | relative viability ([12]; first compound 2.53 µM): 0.508 | relative viability ([12]; first compound 8 µM): 0.595 | relative viability ([13]; first compound 0.08 µM): 0.298 | relative viability ([13]; first compound 0.253 µM): 0.452 | relative viability ([13]; first compound 0.8 µM): 0.452 | relative viability ([13]; first compound 2.53 µM): 0.406 | relative viability ([13]; first compound 8 µM): 0.375 | relative viability ([14]; first compound 0.08 µM): 0.782 | relative viability ([14]; first compound 0.253 µM): 0.975 | relative viability ([14]; first compound 0.8 µM): 1.21 | relative viability ([14]; first compound 2.53 µM): 0.618 | relative viability ([14]; first compound 8 µM): 0.477 | relative viability ([15]; first compound 0.08 µM): 0.394 | relative viability ([15]; first compound 0.253 µM): 0.356 | relative viability ([15]; first compound 0.8 µM): 0.417 | relative viability ([15]; first compound 2.53 µM): 0.371 | relative viability ([15]; first compound 8 µM): 0.466 | relative viability ([16]; first compound 0.08 µM): 0.735 | relative viability ([16]; first compound 0.253 µM): 0.699 | relative viability ([16]; first compound 0.8 µM): 0.704 | relative viability ([16]; first compound 2.53 µM): 0.675 | relative viability ([16]; first compound 8 µM): 0.587 | relative viability ([17]; first compound 0.08 µM): 0.76 | relative viability ([17]; first compound 0.253 µM): 0.732 | relative viability ([17]; first compound 0.8 µM): 0.684 | relative viability ([17]; first compound 2.53 µM): 0.833 | relative viability ([17]; first compound 8 µM): 0.795 | relative viability ([18]; first compound 0.08 µM): 0.672 | relative viability ([18]; first compound 0.253 µM): 0.687 | relative viability ([18]; first compound 0.8 µM): 0.709 | relative viability ([18]; first compound 2.53 µM): 0.698 | relative viability ([18]; first compound 8 µM): 0.623 | relative viability ([19]; first compound 0.08 µM): 0.715 | relative viability ([19]; first compound 0.253 µM): 0.686 | relative viability ([19]; first compound 0.8 µM): 0.749 | relative viability ([19]; first compound 2.53 µM): 0.697 | relative viability ([19]; first compound 8 µM): 0.619 | relative viability ([20]; first compound 0.08 µM): 0.203 | relative viability ([20]; first compound 0.253 µM): 0.189 | relative viability ([20]; first compound 0.8 µM): 0.177 | relative viability ([20]; first compound 2.53 µM): 0.182 | relative viability ([20]; first compound 8 µM): 0.187 | relative viability ([21]; first compound 0.08 µM): 0.445 | relative viability ([21]; first compound 0.253 µM): 0.478 | relative viability ([21]; first compound 0.8 µM): 0.475 | relative viability ([21]; first compound 2.53 µM): 0.456 | relative viability ([21]; first compound 8 µM): 0.419 | relative viability ([22]; first compound 0.08 µM): 0.691 | relative viability ([22]; first compound 0.253 µM): 0.82 | relative viability ([22]; first compound 0.8 µM): 0.767 | relative viability ([22]; first compound 2.53 µM): 0.783 | relative viability ([22]; first compound 8 µM): 0.796 | relative viability ([23]; first compound 0.253 µM): 0.511 | relative viability ([23]; first compound 0.8 µM): 0.504 | relative viability ([23]; first compound 2.53 µM): 0.523 | relative viability ([23]; first compound 8 µM): 0.59
